From ChEMBL document CHEMBL1140070, “Synthesis, structural studies and biological properties of new TBA analogues containing an acyclic nucleotide” (2008) come the findings set out here.

For experiment [1], the system named is Plasma. The experiment in a line: Anticoagulant potency in citreated human plasma assessed as prolongation of thromboplastin-induced prothrombin time at 2 uM by coagulometer. It counts as functional.
Experiment [2] concerns Plasma. The experiment can be described thus: Anticoagulant potency in citreated human plasma assessed as prolongation of thromboplastin-induced prothrombin time at 20 uM by coagulometer. Type of experiment: functional.
Experiment [3] deals with Prothrombin (Homo sapiens) (UniProt P00734). The experiment in a line: Binding affinity to human thrombin assessed as concentration required to double fibrinogen clotting time by coagulometer.

Consider `Cc1cn(CC(C)(COP(=O)(O)OC[C@H]2O[C@@H](n3cnc4c(=O)[nH]c(N)nc43)[C@H](O)[C@@H]2OP(=O)(O)OC[C@H]2O[C@@H](n3cnc4c(=O)[nH]c(N)nc43)[C@H](O)[C@@H]2OP(=O)(O)OC[C@H]2O[C@@H](n3cc(C)c(=O)[nH]c3=O)C[C@@H]2OP(=O)(O)OC[C@H]2O[C@@H](n3cnc4c(=O)[nH]c(N)nc43)[C@H](O)[C@@H]2OP(=O)(O)OC[C@H]2O[C@@H](n3cc(C)c(=O)[nH]c3=O)C[C@@H]2OP(=O)(O)OC[C@H]2O[C@@H](n3cnc4c(=O)[nH]c(N)nc43)[C@H](O)[C@@H]2OP(=O)(O)OC[C@H]2O[C@@H](n3cnc4c(=O)[nH]c(N)nc43)[C@H](O)[C@@H]2OP(=O)(O)OC[C@H]2O[C@@H](n3cc(C)c(=O)[nH]c3=O)C[C@@H]2OP(=O)(O)OC[C@H]2O[C@@H](n3cc(C)c(=O)[nH]c3=O)C[C@@H]2OP(=O)(O)OC[C@H]2O[C@@H](n3cnc4c(=O)[nH]c(N)nc43)[C@H](O)[C@@H]2OP(=O)(O)OC[C@H]2O[C@@H](n3cnc4c(=O)[nH]c(N)nc43)[C@H](O)[C@@H]2O)COP(=O)(O)O[C@H]2C[C@H](n3cc(C)c(=O)[nH]c3=O)O[C@@H]2COP(=O)(O)O[C@H]2[C@@H](O)[C@H](n3cnc4c(=O)[nH]c(N)nc43)O[C@@H]2COP(=O)(O)O[C@H]2[C@@H](O)[C@H](n3cnc4c(=O)[nH]c(N)nc43)O[C@@H]2CO)c(=O)[nH]c1=O` (stereo partly specified), for which the Activity in the experiment on Plasma [1] turned out to be 14.5 s; with Plasma [2], 32.28 s; in experiment [3] it was 250 nM.

Take `Cc1cn([C@H]2C[C@H](OP(=O)(O)OC[C@H]3O[C@@H](n4cnc5c(=O)[nH]c(N)nc54)[C@H](O)[C@@H]3OP(=O)(O)OC[C@H]3O[C@@H](n4cnc5c(=O)[nH]c(N)nc54)[C@H](O)[C@@H]3OP(=O)(O)OC[C@H]3O[C@@H](n4cc(C)c(=O)[nH]c4=O)C[C@@H]3OP(=O)(O)OC[C@H]3O[C@@H](n4cc(C)c(=O)[nH]c4=O)C[C@@H]3OP(=O)(O)OC[C@H]3O[C@@H](n4cnc5c(=O)[nH]c(N)nc54)[C@H](O)[C@@H]3OP(=O)(O)OC[C@H]3O[C@@H](n4cnc5c(=O)[nH]c(N)nc54)[C@H](O)[C@@H]3O)[C@@H](COP(=O)(O)O[C@H]3[C@@H](O)[C@H](n4cnc5c(=O)[nH]c(N)nc54)O[C@@H]3COP(=O)(O)O[C@H]3C[C@H](n4cc(C)c(=O)[nH]c4=O)O[C@@H]3COP(=O)(O)O[C@H]3[C@@H](O)[C@H](n4cnc5c(=O)[nH]c(N)nc54)O[C@@H]3COP(=O)(O)O[C@H]3[C@@H](O)[C@H](n4cnc5c(=O)[nH]c(N)nc54)O[C@@H]3COP(=O)(O)O[C@H]3C[C@H](n4cc(C)c(=O)[nH]c4=O)O[C@@H]3COP(=O)(O)O[C@H]3C[C@H](n4cc(C)c(=O)[nH]c4=O)O[C@@H]3COP(=O)(O)O[C@H]3[C@@H](O)[C@H](n4cnc5c(=O)[nH]c(N)nc54)O[C@@H]3COP(=O)(O)O[C@H]3[C@@H](O)[C@H](n4cnc5c(=O)[nH]c(N)nc54)O[C@@H]3CO)O2)c(=O)[nH]c1=O` [THROMBIN APTAMER]: the results for the Activity (with Plasma [1]; in the experiment with Plasma [2]; in experiment [3]) were 22.6 s, 53.68 s and 175 nM, respectively.

Take `Cc1cn(CC(C)(COP(=O)(O)OC[C@H]2O[C@@H](n3cnc4c(=O)[nH]c(N)nc43)[C@H](O)[C@@H]2OP(=O)(O)OC[C@H]2O[C@@H](n3cnc4c(=O)[nH]c(N)nc43)[C@H](O)[C@@H]2OP(=O)(O)OC[C@H]2O[C@@H](n3cc(C)c(=O)[nH]c3=O)C[C@@H]2OP(=O)(O)OC[C@H]2O[C@@H](n3cc(C)c(=O)[nH]c3=O)C[C@@H]2OP(=O)(O)OC[C@H]2O[C@@H](n3cnc4c(=O)[nH]c(N)nc43)[C@H](O)[C@@H]2OP(=O)(O)OC[C@H]2O[C@@H](n3cnc4c(=O)[nH]c(N)nc43)[C@H](O)[C@@H]2O)COP(=O)(O)O[C@H]2[C@@H](O)[C@H](n3cnc4c(=O)[nH]c(N)nc43)O[C@@H]2COP(=O)(O)O[C@H]2C[C@H](n3cc(C)c(=O)[nH]c3=O)O[C@@H]2COP(=O)(O)O[C@H]2[C@@H](O)[C@H](n3cnc4c(=O)[nH]c(N)nc43)O[C@@H]2COP(=O)(O)O[C@H]2[C@@H](O)[C@H](n3cnc4c(=O)[nH]c(N)nc43)O[C@@H]2COP(=O)(O)O[C@H]2C[C@H](n3cc(C)c(=O)[nH]c3=O)O[C@@H]2COP(=O)(O)O[C@H]2C[C@H](n3cc(C)c(=O)[nH]c3=O)O[C@@H]2COP(=O)(O)O[C@H]2[C@@H](O)[C@H](n3cnc4c(=O)[nH]c(N)nc43)O[C@@H]2COP(=O)(O)O[C@H]2[C@@H](O)[C@H](n3cnc4c(=O)[nH]c(N)nc43)O[C@@H]2CO)c(=O)[nH]c1=O` (stereo partly specified): the Activity in the experiment on Plasma [1] is 13.23 s; in the experiment on Plasma [2] it was 34.65 s; in experiment [3], 210 nM.

In the case of `Cc1cn(CC(C)(COP(=O)(O)OC[C@H]2O[C@@H](n3cc(C)c(=O)[nH]c3=O)C[C@@H]2OP(=O)(O)OC[C@H]2O[C@@H](n3cnc4c(=O)[nH]c(N)nc43)[C@H](O)[C@@H]2OP(=O)(O)OC[C@H]2O[C@@H](n3cnc4c(=O)[nH]c(N)nc43)[C@H](O)[C@@H]2OP(=O)(O)OC[C@H]2O[C@@H](n3cc(C)c(=O)[nH]c3=O)C[C@@H]2OP(=O)(O)OC[C@H]2O[C@@H](n3cnc4c(=O)[nH]c(N)nc43)[C@H](O)[C@@H]2OP(=O)(O)OC[C@H]2O[C@@H](n3cc(C)c(=O)[nH]c3=O)C[C@@H]2OP(=O)(O)OC[C@H]2O[C@@H](n3cnc4c(=O)[nH]c(N)nc43)[C@H](O)[C@@H]2OP(=O)(O)OC[C@H]2O[C@@H](n3cnc4c(=O)[nH]c(N)nc43)[C@H](O)[C@@H]2OP(=O)(O)OC[C@H]2O[C@@H](n3cc(C)c(=O)[nH]c3=O)C[C@@H]2OP(=O)(O)OC[C@H]2O[C@@H](n3cc(C)c(=O)[nH]c3=O)C[C@@H]2OP(=O)(O)OC[C@H]2O[C@@H](n3cnc4c(=O)[nH]c(N)nc43)[C@H](O)[C@@H]2OP(=O)(O)OC[C@H]2O[C@@H](n3cnc4c(=O)[nH]c(N)nc43)[C@H](O)[C@@H]2O)COP(=O)(O)O[C@H]2[C@@H](O)[C@H](n3cnc4c(=O)[nH]c(N)nc43)O[C@@H]2COP(=O)(O)O[C@H]2[C@@H](O)[C@H](n3cnc4c(=O)[nH]c(N)nc43)O[C@@H]2CO)c(=O)[nH]c1=O` (stereo partly specified), the Activity in the experiment on Plasma [1] came out at 14.3 s; with Plasma [2], 35.15 s; in experiment [3], 238 nM.

As for `Cc1cn(CC(C)(COP(=O)(O)OC[C@H]2O[C@@H](n3cnc4c(=O)[nH]c(N)nc43)[C@H](O)[C@@H]2OP(=O)(O)OC[C@H]2O[C@@H](n3cc(C)c(=O)[nH]c3=O)C[C@@H]2OP(=O)(O)OC[C@H]2O[C@@H](n3cnc4c(=O)[nH]c(N)nc43)[C@H](O)[C@@H]2OP(=O)(O)OC[C@H]2O[C@@H](n3cnc4c(=O)[nH]c(N)nc43)[C@H](O)[C@@H]2OP(=O)(O)OC[C@H]2O[C@@H](n3cc(C)c(=O)[nH]c3=O)C[C@@H]2OP(=O)(O)OC[C@H]2O[C@@H](n3cc(C)c(=O)[nH]c3=O)C[C@@H]2OP(=O)(O)OC[C@H]2O[C@@H](n3cnc4c(=O)[nH]c(N)nc43)[C@H](O)[C@@H]2OP(=O)(O)OC[C@H]2O[C@@H](n3cnc4c(=O)[nH]c(N)nc43)[C@H](O)[C@@H]2O)COP(=O)(O)O[C@H]2[C@@H](O)[C@H](n3cnc4c(=O)[nH]c(N)nc43)O[C@@H]2COP(=O)(O)O[C@H]2[C@@H](O)[C@H](n3cnc4c(=O)[nH]c(N)nc43)O[C@@H]2COP(=O)(O)O[C@H]2C[C@H](n3cc(C)c(=O)[nH]c3=O)O[C@@H]2COP(=O)(O)O[C@H]2C[C@H](n3cc(C)c(=O)[nH]c3=O)O[C@@H]2COP(=O)(O)O[C@H]2[C@@H](O)[C@H](n3cnc4c(=O)[nH]c(N)nc43)O[C@@H]2COP(=O)(O)O[C@H]2[C@@H](O)[C@H](n3cnc4c(=O)[nH]c(N)nc43)O[C@@H]2CO)c(=O)[nH]c1=O` (stereo partly specified), the Activity with Plasma [1] came to 24.67 s; in the experiment with Plasma [2] it was 60.2 s; in experiment [3], 70 nM.

As for `Cc1cn(CC(C)(COP(=O)(O)OC[C@H]2O[C@@H](n3cnc4c(=O)[nH]c(N)nc43)[C@H](O)[C@@H]2OP(=O)(O)OC[C@H]2O[C@@H](n3cnc4c(=O)[nH]c(N)nc43)[C@H](O)[C@@H]2O)COP(=O)(O)O[C@H]2C[C@H](n3cc(C)c(=O)[nH]c3=O)O[C@@H]2COP(=O)(O)O[C@H]2[C@@H](O)[C@H](n3cnc4c(=O)[nH]c(N)nc43)O[C@@H]2COP(=O)(O)O[C@H]2[C@@H](O)[C@H](n3cnc4c(=O)[nH]c(N)nc43)O[C@@H]2COP(=O)(O)O[C@H]2C[C@H](n3cc(C)c(=O)[nH]c3=O)O[C@@H]2COP(=O)(O)O[C@H]2[C@@H](O)[C@H](n3cnc4c(=O)[nH]c(N)nc43)O[C@@H]2COP(=O)(O)O[C@H]2C[C@H](n3cc(C)c(=O)[nH]c3=O)O[C@@H]2COP(=O)(O)O[C@H]2[C@@H](O)[C@H](n3cnc4c(=O)[nH]c(N)nc43)O[C@@H]2COP(=O)(O)O[C@H]2[C@@H](O)[C@H](n3cnc4c(=O)[nH]c(N)nc43)O[C@@H]2COP(=O)(O)O[C@H]2C[C@H](n3cc(C)c(=O)[nH]c3=O)O[C@@H]2COP(=O)(O)O[C@H]2C[C@H](n3cc(C)c(=O)[nH]c3=O)O[C@@H]2COP(=O)(O)O[C@H]2[C@@H](O)[C@H](n3cnc4c(=O)[nH]c(N)nc43)O[C@@H]2COP(=O)(O)O[C@H]2[C@@H](O)[C@H](n3cnc4c(=O)[nH]c(N)nc43)O[C@@H]2CO)c(=O)[nH]c1=O` (stereo partly specified), the Activity in the experiment with Plasma [1] is 17.5 s; with Plasma [2], 46.97 s; in experiment [3], 100 nM.

Turning to `Cc1cn(CC(C)(COP(=O)(O)OC[C@H]2O[C@@H](n3cc(C)c(=O)[nH]c3=O)C[C@@H]2OP(=O)(O)OC[C@H]2O[C@@H](n3cnc4c(=O)[nH]c(N)nc43)[C@H](O)[C@@H]2OP(=O)(O)OC[C@H]2O[C@@H](n3cnc4c(=O)[nH]c(N)nc43)[C@H](O)[C@@H]2O)COP(=O)(O)O[C@H]2[C@@H](O)[C@H](n3cnc4c(=O)[nH]c(N)nc43)O[C@@H]2COP(=O)(O)O[C@H]2[C@@H](O)[C@H](n3cnc4c(=O)[nH]c(N)nc43)O[C@@H]2COP(=O)(O)O[C@H]2C[C@H](n3cc(C)c(=O)[nH]c3=O)O[C@@H]2COP(=O)(O)O[C@H]2[C@@H](O)[C@H](n3cnc4c(=O)[nH]c(N)nc43)O[C@@H]2COP(=O)(O)O[C@H]2C[C@H](n3cc(C)c(=O)[nH]c3=O)O[C@@H]2COP(=O)(O)O[C@H]2[C@@H](O)[C@H](n3cnc4c(=O)[nH]c(N)nc43)O[C@@H]2COP(=O)(O)O[C@H]2[C@@H](O)[C@H](n3cnc4c(=O)[nH]c(N)nc43)O[C@@H]2COP(=O)(O)O[C@H]2C[C@H](n3cc(C)c(=O)[nH]c3=O)O[C@@H]2COP(=O)(O)O[C@H]2C[C@H](n3cc(C)c(=O)[nH]c3=O)O[C@@H]2COP(=O)(O)O[C@H]2[C@@H](O)[C@H](n3cnc4c(=O)[nH]c(N)nc43)O[C@@H]2COP(=O)(O)O[C@H]2[C@@H](O)[C@H](n3cnc4c(=O)[nH]c(N)nc43)O[C@@H]2CO)c(=O)[nH]c1=O` (stereo partly specified), the Activity with Plasma [1] was found to be 18.07 s; in the experiment on Plasma [2] it was 44.83 s; in experiment [3], 78 nM.
